These results are taken from paper PMC10035904, “Synthesis of novel sulphamethoxazole derivatives and exploration of their anticancer and antimicrobial properties” (PLOS ONE, 2023).

In data set [1] the test system is Human foreskin fibroblasts (HF) CRL-4001. In words: MTT cell viability assay, fibroblasts HF. Format: cell-based. The following applies: Fibroblast, 72 hours of incubation, n = 3, read-out: EC50 against HF. Here is the method: (§1) The human clear cell renal cell carcinoma line (CaKi-1) was obtained from American Type Culture Collection (ATCC, Manassas, VA). The human prostate carcinoma cell line PPC-1 was originally obtained from ATCC and kindly provided by Prof. Tambet Teesalu (University of Tartu, Estonia). Human foreskin fibroblasts (HF) CRL-4001 were originally obtained from ATCC and kindly provided by Prof. Helder Santos (University of Helsinki, Finland). Cells were cultured in Dulbecco’s Modified Eagle’s GlutaMAX medium (Gibco (Carlsbad, CA, USA) supplemented with 10,000 U/mL penicillin, 10 mg/mL streptomycin (Gibco), and 10% fetal bovine serum (Gibco). During cell passaging, Tryple Express reagent (Gibco) was used for cell detachment. Cell cultures were grown at 37°C in a humidified atmosphere containing 5% CO2. They were used until the passage of 20.
(§2) The effect of synthesized compounds on cell viability was studied using 3-(4,5-dimethylthiazol-2-yl)-2,5-diphenyltetrazolium bromide (MTT; Sigma-Aldrich Co., St Louis, MO, USA) assay, as described elsewhere. […] The absorbance was measured at 570 and 630 nm using a multi-detection microplate reader. The compound effect on cell viability was calculated using a formula (1): Relativecellviability%=A−A0/ANC−A0 (1) Where: […]
For orientation: Tetrazolium assays rely on reduction of a dye to a coloured formazan, in cell work by metabolically active cells.

Data set [2] concerns human clear cell renal cell carcinoma line (CaKi-1). Briefly: MTT cell viability assay, CaKi-1. Format: cell-based. The following applies: 72 hours of incubation, n = 3, read-out: EC50 against CaKi-1. The protocol:
as §1, §2

The test system of data set [3] is human prostate carcinoma cell line PPC-1. In words: MTT cell viability assay, PPC-1. Format: cell-based. The settings on record: 72 hours of incubation, n = 3, read-out: EC50 against PPC-1. The protocol: as §1, §2
Data set [4] relates to HF, PPC-1, and CaKi-1 cells. In words: MTT cell viability screen at 100 μM (cell line not given). Format: cell-based, human. The settings on record: 72 h, cell line not stated. Here is the method:
The effect of synthesized compounds on cell viability was studied using 3-(4,5-dimethylthiazol-2-yl)-2,5-diphenyltetrazolium bromide (MTT; Sigma-Aldrich Co., St Louis, MO, USA) assay, as described elsewhere. Briefly, HF, PPC-1, and CaKi-1 cells were seeded in 96-well plates (Corning) in triplicates at a volume of 100 μL at a concentration of 4 × 10^3 cells/well. After 24 h of incubation, the cells were treated with 100 μM of tested compounds. After 72 h, the MTT reagent (at 0.5 mg/mL concentration) has been added to the wells, and cells were incubated for 4 h. Then the medium was aspirated, and the formed purple crystals were dissolved in 100 μL DMSO (Sigma-Aldrich Co.). The absorbance was measured at 570 and 630 nm using a multi-detection microplate reader. The compound effect on cell viability was calculated using a formula (1): Relativecellviability%=A−A0/ANC−A0 (1) Where: […]

For another data set, the system named is CaKi-1 cells. The settings on record: cited from earlier work.

Where two headings read alike, the source gives them in different places.

As usually defined, the EC50 is the concentration at which the effect is half-maximal. One may read the melting point as the temperature, or range, at which the solid turns liquid. `Cc1cc(NS(=O)(=O)c2ccc(NCCC(=O)NN=Cc3cccc4ccccc34)cc2)no1` [Compound 15k, N-(5-methylisoxazol-3-yl)-4-((3-(2-(naphthalen-1-ylmethylene)hydrazineyl)-3-oxopropyl)amino)-benzenesulfonamide] came in with a melting point of 206 to 207 °C. The EC50 in data set [1] was above 100 µM. Besides, the EC50 in data set [2] is above 100 µM. Further, the EC50 in data set [3] is above 100 µM. In addition, in data set [4], the “reduced cell viability up to about” value is listed as “about 40%”.
As for `Cc1ccc(Nc2nccc(N(C)c3ccc4c(C)n(C)nc4c3)n2)cc1S(N)(=O)=O` [pazopanib], in the data set with CaKi-1 cells (after 72 hours of incubation, read-out: EC50 (renal cancer drugs, compared with CaKi-1 data)), the EC50 is 30 µM.
As to `CCN(CC)CCNC(=O)c1c(C)[nH]c(/C=C2\C(=O)Nc3ccc(F)cc32)c1C` [sunitinib], in the data set on CaKi-1 cells (read-out: EC50 against CaKi-1 cells), the EC50 was 2.2 µM.
